Data on nine compounds can be found in PubChem BioAssay (NCI).

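A five-concentration, 48-hour dose response in 96-well plates underlies each endpoint, interpolated linearly between surrounding concentrations. GI50 marks 50% less growth. TGI is the concentration that stops growth completely.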

Among the test systems are OVCAR-4 ovarian; SF-268 CNS; HCT-116 colon; MALME-3M melanoma; A498 renal; CCRF-CEM leukemia; EKVX NSCLC; UACC-62 melanoma; SK-MEL-2 melanoma; SW-620 colon.
Common to all, as to experiment: NCI tumour cell line growth inhibition, 48 h

With `COc1cc(Nc2nc3cc(N)cc(N)c3nc2-c2ccccc2)cc(OC)c1`, the GI50 was 17.8 µM in the assay with OVCAR-4 ovarian; 5.59 µM with SF-268 CNS; 16.9 µM in the assay with HCT-116 colon; 4.34 µM in the assay with MALME-3M melanoma; 4.91 µM in the assay with A498 renal; 13.3 µM with EKVX NSCLC. Besides, the figures for the GI50 in the assay on UACC-62 melanoma, with SK-MEL-2 melanoma and with SW-620 colon were 7.33 µM, 12 µM and 27.2 µM, respectively. The TGI is > 100 µM in the assay on OVCAR-4 ovarian; 55.8 µM in the assay with SF-268 CNS; 54.1 µM with HCT-116 colon; 24.6 µM with MALME-3M melanoma; 22.4 µM in the assay with A498 renal; 0.167 µM with CCRF-CEM leukemia. For the same compound, the TGI in the assay on EKVX NSCLC was 64.4 µM; in the assay with UACC-62 melanoma it was 23.3 µM; with SK-MEL-2 melanoma it was 63.8 µM; in the assay on SW-620 colon, > 100 µM.
As to `O=C(O)c1cc2ccccc2c(O)c1O`, the TGI is 35 µM in the assay with OVCAR-4 ovarian; 32 µM in the assay with SF-268 CNS; 30.7 µM in the assay on HCT-116 colon; 3.78 µM in the assay with MALME-3M melanoma; 51.7 µM with A498 renal; > 58.6 µM with CCRF-CEM leukemia. Besides, the TGI came out at 51.1 µM with EKVX NSCLC, 13 µM with UACC-62 melanoma, 14.6 µM with SK-MEL-2 melanoma and 34.8 µM in the assay on SW-620 colon.
For `COC(=O)C(CCS(=O)(=O)CC(=O)C(=O)Nc1cccc(C(C)=O)c1)C(=O)OC`, the TGI with OVCAR-4 ovarian is > 100 µM; in the assay with SF-268 CNS, > 100 µM; in the assay with HCT-116 colon, > 100 µM; in the assay with MALME-3M melanoma it was > 100 µM; in the assay with A498 renal, > 100 µM; in the assay with CCRF-CEM leukemia, > 65.5 µM. For the same compound, the TGI with EKVX NSCLC, with UACC-62 melanoma, with SK-MEL-2 melanoma and in the assay on SW-620 colon was > 100 µM in each case.
With `CC(=O)OC1C(=O)C(O)C(C)OC1O[C@@H]1C[C@@]2(C)[C@@H]3CC=C4[C@@H](C[C@H](O)C(=O)C4(C)C)[C@]3(C)C(=O)C[C@]2(C)[C@H]1[C@@](C)(O)C(=O)/C=C/C(C)(C)O` (some centres not stated), the TGI is 5.51 µM in the assay on OVCAR-4 ovarian; 4.01 µM in the assay with SF-268 CNS; > 10 µM with HCT-116 colon; 9.83 µM in the assay on MALME-3M melanoma; 1.04 µM with A498 renal; > 7.21 µM in the assay on CCRF-CEM leukemia. Besides, the TGI in the assay on EKVX NSCLC was > 7.55 µM; with UACC-62 melanoma it was > 7.98 µM; in the assay with SW-620 colon, 9.85 µM. Moreover, the GI50 in the assay with SK-MEL-2 melanoma is 0.055 µM.
Consider `C=C1[C@@H](C)[C@H]2[C@H](Cc3ccccc3)NC(=O)[C@]23OC(=O)/C=C/[C@H](O)CCC[C@@H](C)C/C=C/[C@H]3[C@@H]1O`, for which the TGI with OVCAR-4 ovarian was > 100 µM; in the assay on SF-268 CNS it was 73.6 µM; in the assay on HCT-116 colon it was > 100 µM; in the assay on MALME-3M melanoma it was > 89 µM; in the assay with A498 renal, 16.5 µM; in the assay with CCRF-CEM leukemia, 57.4 µM. Further, the TGI in the assay with EKVX NSCLC is > 100 µM; in the assay on UACC-62 melanoma, 66.2 µM; in the assay on SK-MEL-2 melanoma, 89.1 µM; in the assay on SW-620 colon, > 100 µM.
With `C(=N\Nc1ccccn1)/c1ccccn1`, the GI50 was 0.26 µM with OVCAR-4 ovarian; 0.309 µM in the assay with SF-268 CNS; 0.303 µM with HCT-116 colon; 0.293 µM with MALME-3M melanoma; 0.273 µM with A498 renal; 0.446 µM in the assay with CCRF-CEM leukemia. In addition, the GI50 with EKVX NSCLC is 0.348 µM; in the assay with UACC-62 melanoma, 0.327 µM; in the assay with SK-MEL-2 melanoma, > 100 µM; in the assay on SW-620 colon, 0.557 µM. Moreover, the TGI in the assay with SF-268 CNS was > 23.4 µM; with HCT-116 colon, > 100 µM; in the assay on MALME-3M melanoma, 2.69 µM; in the assay on CCRF-CEM leukemia, > 100 µM; in the assay with EKVX NSCLC, > 100 µM; in the assay on UACC-62 melanoma, 2.28 µM. Besides, the TGI in the assay with SK-MEL-2 melanoma and in the assay with SW-620 colon was > 100 µM in each case.
For `CCN(Cc1cccc(OC)c1)c1ccc(CO)c(Cl)c1`, the GI50 with OVCAR-4 ovarian was 0.291 µM; in the assay on SF-268 CNS, 22.5 µM; in the assay with HCT-116 colon, 0.0731 µM; with MALME-3M melanoma, 17.5 µM; in the assay on A498 renal it was 0.0598 µM; in the assay with CCRF-CEM leukemia, 24.8 µM. For the same compound, the GI50 with EKVX NSCLC is 19.9 µM; with UACC-62 melanoma, 0.0839 µM; in the assay with SK-MEL-2 melanoma, 2.81 µM; with SW-620 colon it was 0.763 µM. In addition, the TGI is 14.3 µM in the assay with OVCAR-4 ovarian; 71.6 µM in the assay with SF-268 CNS; 11.2 µM in the assay with HCT-116 colon; 40.9 µM with MALME-3M melanoma; 0.191 µM in the assay with A498 renal; > 82.6 µM in the assay with CCRF-CEM leukemia. Besides, the TGI in the assay on EKVX NSCLC was 71.3 µM; in the assay with UACC-62 melanoma, 0.48 µM; in the assay on SK-MEL-2 melanoma, 21.3 µM; in the assay on SW-620 colon, > 100 µM.
Turning to `Cc1ccc(C(CN(C)C)C(=O)c2ccccc2)cc1` (configuration not stated), the GI50 was 2.76 µM in the assay on OVCAR-4 ovarian; 3.13 µM in the assay with SF-268 CNS; 0.514 µM in the assay with HCT-116 colon; 2.74 µM in the assay on MALME-3M melanoma; 13.5 µM in the assay on A498 renal; 0.442 µM with CCRF-CEM leukemia. The GI50 is 4.63 µM with EKVX NSCLC, 1.85 µM in the assay with UACC-62 melanoma, 4.45 µM with SK-MEL-2 melanoma and 0.894 µM in the assay on SW-620 colon. In addition, the TGI in the assay on OVCAR-4 ovarian came to 13 µM; in the assay on SF-268 CNS, 13 µM; in the assay with HCT-116 colon it was 1.83 µM; in the assay with MALME-3M melanoma, 8.89 µM; in the assay on A498 renal it was 28.6 µM; in the assay with CCRF-CEM leukemia, 10.6 µM. For the same compound, the TGI in the assay on EKVX NSCLC stood at 23.1 µM; in the assay with UACC-62 melanoma, 4.33 µM; with SK-MEL-2 melanoma, 15.8 µM; in the assay on SW-620 colon, 2.71 µM.
For the compound `CCCCn1c2cc(OCc3cn(-c4ccc(Cl)cc4)nn3)ccc2c2ccnc(C)c21`, the GI50 is 5.95 µM in the assay on OVCAR-4 ovarian; 9.15 µM in the assay on SF-268 CNS; 5.11 µM in the assay on HCT-116 colon; 5.98 µM in the assay with MALME-3M melanoma; 5.08 µM in the assay with A498 renal; 9.27 µM in the assay with CCRF-CEM leukemia. For the same compound, the GI50 is 6.93 µM with EKVX NSCLC, 4.96 µM in the assay on UACC-62 melanoma, 7.82 µM in the assay with SK-MEL-2 melanoma and 11 µM in the assay with SW-620 colon. The TGI is 25.5 µM with OVCAR-4 ovarian; > 33.3 µM with SF-268 CNS; 13.2 µM with HCT-116 colon; 14.5 µM with MALME-3M melanoma; 14.1 µM with A498 renal; > 33.3 µM with CCRF-CEM leukemia. For the same compound, the TGI in the assay with EKVX NSCLC was > 33.3 µM; in the assay with UACC-62 melanoma it was 11.8 µM; with SK-MEL-2 melanoma, 22.5 µM; in the assay with SW-620 colon, > 33.3 µM.
